Data reported in the NIST ThermoML archive (doi:10.1016/j.tca.2015.06.017).

Test: xn = mol fraction of the nth substance listed
Details: Liquid, Vibrating tube method

CC(C)(C)Cl [2-chloro-2-methylpropane] + CCCCCCC
mass density [kg/m3]
Details	283.15 K	293.15 K	298.15 K
100 kPa, x2 = 0.0554	842.44	830.68	824.75
100 kPa, x2 = 0.1017	832.31	820.81	814.99
100 kPa, x2 = 0.2004	811.94	800.91	795.33
100 kPa, x2 = 0.3016	792.65	782.03	776.67
100 kPa, x2 = 0.4097	773.66	763.43	758.26
100 kPa, x2 = 0.498	759.27	749.33	744.32
100 kPa, x2 = 0.5983	744.02	734.42	729.58
100 kPa, x2 = 0.7017	729.43	720.16	715.49
100 kPa, x2 = 0.7995	716.55	707.61	703.09
100 kPa, x2 = 0.9032	703.79	695.15	690.79
100 kPa, x2 = 0.9482	698.49	689.98	685.68
2000 kPa, x2 = 0.0554	844.68	833.14	827.29
2000 kPa, x2 = 0.1017	834.48	823.24	817.46
2000 kPa, x2 = 0.2004	814.1	803.29	797.78
2000 kPa, x2 = 0.3016	794.78	784.22	778.97
2000 kPa, x2 = 0.4097	775.6	765.58	760.5
2000 kPa, x2 = 0.498	761.33	751.59	746.66
2000 kPa, x2 = 0.5983	745.93	736.51	731.77
2000 kPa, x2 = 0.7017	731.35	722.23	717.66
2000 kPa, x2 = 0.7995	718.47	709.61	705.19
2000 kPa, x2 = 0.9032	705.72	697.14	692.86
2000 kPa, x2 = 0.9482	700.41	691.94	687.76
5000 kPa, x2 = 0.0554	848.13	836.88	831.22
5000 kPa, x2 = 0.1017	837.91	826.9	821.35
5000 kPa, x2 = 0.2004	817.4	806.74	801.38
5000 kPa, x2 = 0.3016	797.97	787.77	782.63
5000 kPa, x2 = 0.4097	778.78	769.03	763.93
5000 kPa, x2 = 0.498	764.17	754.81	749.94
5000 kPa, x2 = 0.5983	748.83	739.75	734.95
5000 kPa, x2 = 0.7017	734.11	725.28	720.69
5000 kPa, x2 = 0.7995	721.17	712.57	708.17
5000 kPa, x2 = 0.9032	708.35	700.04	695.72
5000 kPa, x2 = 0.9482	703.02	694.81	690.58
7000 kPa, x2 = 0.0554	850.47	839.29	833.69
7000 kPa, x2 = 0.1017	840.22	829.3	823.79
7000 kPa, x2 = 0.2004	819.61	809.03	803.89
7000 kPa, x2 = 0.3016	800.1	789.87	784.93
7000 kPa, x2 = 0.4097	780.74	771.15	766.14
7000 kPa, x2 = 0.498	766.3	756.85	752.1
7000 kPa, x2 = 0.5983	750.75	741.66	737.06
7000 kPa, x2 = 0.7017	736.02	727.16	722.75
7000 kPa, x2 = 0.7995	722.99	714.5	710.2
7000 kPa, x2 = 0.9032	710.1	701.82	697.64
7000 kPa, x2 = 0.9482	704.76	696.6	692.49
10000 kPa, x2 = 0.0554	853.75	842.85	837.41
10000 kPa, x2 = 0.1017	843.46	832.92	827.3
10000 kPa, x2 = 0.2004	822.51	812.44	807.34
10000 kPa, x2 = 0.3016	803.09	793.26	788.26
10000 kPa, x2 = 0.4097	783.69	774.21	769.41
10000 kPa, x2 = 0.498	769.05	759.84	755.22
10000 kPa, x2 = 0.5983	753.62	744.65	740.1
10000 kPa, x2 = 0.7017	738.75	730.1	725.72
10000 kPa, x2 = 0.7995	725.53	717.31	712.96
10000 kPa, x2 = 0.9032	712.59	704.57	700.3
10000 kPa, x2 = 0.9482	707.21	699.31	695.09
20000 kPa, x2 = 0.0554	864	853.69	848.71
20000 kPa, x2 = 0.1017	853.55	843.51	838.45
20000 kPa, x2 = 0.2004	832.47	822.74	818.1
20000 kPa, x2 = 0.3016	812.54	803.2	798.58
20000 kPa, x2 = 0.4097	792.93	783.9	779.66
20000 kPa, x2 = 0.498	778.04	769.27	765.11
20000 kPa, x2 = 0.5983	762.35	753.74	749.57
20000 kPa, x2 = 0.7017	747.22	738.84	734.93
20000 kPa, x2 = 0.7995	733.81	725.88	721.79
20000 kPa, x2 = 0.9032	720.64	712.92	708.9
20000 kPa, x2 = 0.9482	715.18	707.57	703.58
30000 kPa, x2 = 0.0554	873.3	863.54	858.8
30000 kPa, x2 = 0.1017	862.73	853.13	848.35
30000 kPa, x2 = 0.2004	841.24	832.13	827.76
30000 kPa, x2 = 0.3016	821.19	812.29	807.95
30000 kPa, x2 = 0.4097	801.28	792.63	788.48
30000 kPa, x2 = 0.498	786.13	777.78	773.73
30000 kPa, x2 = 0.5983	770.17	762.02	758.07
30000 kPa, x2 = 0.7017	754.83	746.9	743.08
30000 kPa, x2 = 0.7995	741.14	733.66	729.79
30000 kPa, x2 = 0.9032	727.83	720.51	716.58
30000 kPa, x2 = 0.9482	722.3	715.09	711.27
40000 kPa, x2 = 0.0554	881.82	872.42	867.89
40000 kPa, x2 = 0.1017	870.96	862.05	857.39
40000 kPa, x2 = 0.2004	849.41	840.65	836.44
40000 kPa, x2 = 0.3016	829.08	820.63	816.41
40000 kPa, x2 = 0.4097	808.91	800.54	796.66
40000 kPa, x2 = 0.498	793.67	785.54	781.69
40000 kPa, x2 = 0.5983	777.41	769.5	765.72
40000 kPa, x2 = 0.7017	761.79	754.19	750.52
40000 kPa, x2 = 0.7995	747.96	740.77	737.07
40000 kPa, x2 = 0.9032	734.49	727.37	723.74
40000 kPa, x2 = 0.9482	728.9	721.88	718.29
50000 kPa, x2 = 0.0554	889.56	880.62	876.38
50000 kPa, x2 = 0.1017	878.68	870	865.68
50000 kPa, x2 = 0.2004	856.76	848.46	844.44
50000 kPa, x2 = 0.3016	836.39	828.17	824.32
50000 kPa, x2 = 0.4097	815.92	807.96	804.27
50000 kPa, x2 = 0.498	800.51	792.71	789.1
50000 kPa, x2 = 0.5983	784.09	776.5	772.96
50000 kPa, x2 = 0.7017	768.34	761.01	757.53
50000 kPa, x2 = 0.7995	754.42	747.33	743.9
50000 kPa, x2 = 0.9032	740.62	733.84	730.37
50000 kPa, x2 = 0.9482	734.97	728.3	724.81
60000 kPa, x2 = 0.0554	896.85	888.24	884.1
60000 kPa, x2 = 0.1017	885.94	877.59	873.27
60000 kPa, x2 = 0.2004	863.93	855.9	852
60000 kPa, x2 = 0.3016	843.17	835.3	831.63
60000 kPa, x2 = 0.4097	822.77	814.87	811.3
60000 kPa, x2 = 0.498	807.05	799.57	796.01
60000 kPa, x2 = 0.5983	790.42	783.15	779.73
60000 kPa, x2 = 0.7017	774.43	767.47	764.12
60000 kPa, x2 = 0.7995	760.28	753.62	750.3
60000 kPa, x2 = 0.9032	746.42	739.97	736.68
60000 kPa, x2 = 0.9482	740.73	734.33	731.11
65000 kPa, x2 = 0.0554	900.21	891.92	887.83
65000 kPa, x2 = 0.1017	889.29	881.11	877.03
65000 kPa, x2 = 0.2004	867.33	859.41	855.63
65000 kPa, x2 = 0.3016	846.38	838.73	834.93
65000 kPa, x2 = 0.4097	825.84	818.27	814.66
65000 kPa, x2 = 0.498	809.97	802.79	799.35
65000 kPa, x2 = 0.5983	793.31	786.25	782.96
65000 kPa, x2 = 0.7017	777.27	770.47	767.16
65000 kPa, x2 = 0.7995	763.11	756.52	753.28
65000 kPa, x2 = 0.9032	749.1	742.75	739.66
65000 kPa, x2 = 0.9482	743.43	737.09	734.01
